Data reported in the supplement of paper PMC10307832.

Tests used:
Assay in all cases: relative viability (nuclei count vs DMSO), 5 days (fraction); higher = more cells survive
Imatinib + Luminespib = compound: Cc1ccc(NC(=O)c2ccc(CN3CCN(C)CC3)cc2)cc1Nc1nccc(-c2cccnc2)n1 [Imatinib] + CCNC(=O)c1noc(-c2cc(C(C)C)c(O)cc2O)c1-c1ccc(CN2CCOCC2)cc1 [Luminespib] (partner 0.01 µM)
Procedure, shortened: (§1)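 After 5 days of treatment, lung cancer cells in 1536-well plates were fixed and stained in a single step (final 0.05% Triton X-100, 1% formaldehyde, 1 ug/ml Hoechst) and their nuclei counted on 4× images. Treatment had been applied by pin tool the day after seeding as one drug alone or as a fixed anchor-drug dose with five library-drug doses (not always all listed) in √10 steps. Relative viability is the nuclei count of treated wells divided by that of vehicle wells, and values are medians of duplicate plates.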

Imatinib + Dasatinib = compound: Cc1ccc(NC(=O)c2ccc(CN3CCN(C)CC3)cc2)cc1Nc1nccc(-c2cccnc2)n1 [Imatinib] + Cc1nc(Nc2ncc(C(=O)Nc3c(C)cccc3Cl)s2)cc(N2CCN(CCO)CC2)n1 [Dasatinib] (partner 0.075 µM)
Procedure, shortened: as §1

Imatinib + Decitabine = compound: Cc1ccc(NC(=O)c2ccc(CN3CCN(C)CC3)cc2)cc1Nc1nccc(-c2cccnc2)n1 [Imatinib] + Nc1ncn([C@H]2C[C@H](O)[C@@H](CO)O2)c(=O)n1 [Decitabine] (partner 2 µM)
Procedure, shortened: as §1

Imatinib + Olaparib = compound: Cc1ccc(NC(=O)c2ccc(CN3CCN(C)CC3)cc2)cc1Nc1nccc(-c2cccnc2)n1 [Imatinib] + O=C(c1cc(Cc2n[nH]c(=O)c3ccccc23)ccc1F)N1CCN(C(=O)C2CC2)CC1 [Olaparib] (partner 8 µM)
Procedure, shortened: as §1

| Cell Line | relative viability (Imatinib + Luminespib; first compound 0.02 µM) | relative viability (Imatinib + Luminespib; first compound 0.06325 µM) | relative viability (Imatinib + Luminespib; first compound 0.2 µM) | relative viability (Imatinib + Luminespib; first compound 0.6325 µM) | relative viability (Imatinib + Luminespib; first compound 2 µM) | relative viability (Imatinib + Dasatinib; first compound 0.02 µM) | relative viability (Imatinib + Dasatinib; first compound 0.06325 µM) | relative viability (Imatinib + Dasatinib; first compound 0.2 µM) | relative viability (Imatinib + Dasatinib; first compound 0.6325 µM) | relative viability (Imatinib + Dasatinib; first compound 2 µM) | relative viability (Imatinib + Decitabine; first compound 0.02 µM) | relative viability (Imatinib + Decitabine; first compound 0.06325 µM) | relative viability (Imatinib + Decitabine; first compound 0.2 µM) | relative viability (Imatinib + Decitabine; first compound 0.6325 µM) | relative viability (Imatinib + Decitabine; first compound 2 µM) | relative viability (Imatinib + Olaparib; first compound 0.02 µM) | relative viability (Imatinib + Olaparib; first compound 0.06325 µM) | relative viability (Imatinib + Olaparib; first compound 0.2 µM) | relative viability (Imatinib + Olaparib; first compound 0.6325 µM) | relative viability (Imatinib + Olaparib; first compound 2 µM) |
| --- | --- | --- | --- | --- | --- | --- | --- | --- | --- | --- | --- | --- | --- | --- | --- | --- | --- | --- | --- | --- |
| NCI-H1650 | 0.189 | 0.2 | 0.184 | 0.192 | 0.193 | 0.371 | 0.262 | 0.326 | 0.285 | 0.261 | 0.476 | 0.367 | 0.42 | 0.371 | 0.425 | 1 | 0.938 | 0.944 | 0.859 | 0.84 |
| UMC-11 | 1.19 | 1.22 | 1.04 | – | 0.96 | 0.527 | 0.34 | 0.619 | 0.507 | 0.457 | 0.554 | 0.615 | 0.59 | 0.619 | 0.683 | 0.352 | 0.514 | 0.366 | 0.41 | 0.301 |
| EPLC-272H | 0.312 | – | 0.456 | 0.306 | 0.14 | 0.393 | – | 0.367 | 0.311 | 0.289 | 0.327 | – | – | 0.408 | 0.33 | 0.669 | – | – | 0.795 | 0.732 |
| NCI-H2342 | 0.787 | 0.757 | 0.728 | 0.649 | 0.715 | 0.289 | 0.326 | 0.321 | 0.321 | 0.316 | 0.745 | 0.713 | 0.779 | 0.679 | 0.71 | 0.44 | 0.404 | 0.466 | 0.473 | 0.426 |
| ABC-1 | 0.911 | – | 0.445 | 0.326 | – | 0.624 | – | 0.689 | 0.522 | 0.523 | 1.22 | – | 0.909 | 1.15 | 1.06 | 1 | – | 0.732 | 0.785 | 0.581 |
| LOU-NH91 | 0.319 | 0.35 | 0.361 | 0.347 | 0.303 | 0.569 | 0.581 | 0.607 | 0.567 | 0.56 | 0.793 | 0.814 | 0.795 | 0.813 | 0.767 | 1.04 | 0.982 | – | 0.879 | 0.894 |
| SW 900 | 0.201 | 0.146 | 0.168 | 0.175 | 0.161 | 0.552 | 0.412 | 0.641 | 0.48 | 0.567 | 0.37 | 0.467 | 0.499 | 0.468 | 0.411 | 0.909 | 1.08 | 1.05 | 0.711 | 0.731 |
| NCI-H838 | 0.33 | 0.3 | 0.363 | 0.275 | 0.266 | 0.268 | 0.307 | 0.3 | 0.297 | 0.358 | 0.464 | 0.497 | 0.469 | 0.488 | 0.424 | 0.88 | 0.988 | – | 0.883 | 0.852 |
| SK-LU-1 | 0.212 | 0.222 | 0.201 | 0.243 | 0.188 | 0.16 | 0.212 | 0.162 | 0.181 | 0.186 | 0.686 | 0.543 | 0.588 | 0.598 | 0.645 | 0.379 | 0.457 | 0.462 | – | – |
| HCC-827 | – | 0.322 | 0.807 | 0.545 | 0.729 | 0.287 | 0.269 | 0.239 | 0.151 | 0.272 | 0.31 | 0.32 | 0.311 | 0.36 | 0.307 | 0.741 | 0.724 | 0.762 | 0.639 | 0.628 |
| PC-3 [JPC-3] | 0.764 | – | 0.705 | 0.704 | 0.734 | 1.1 | – | 0.955 | 0.931 | 0.778 | 0.861 | – | – | 0.776 | 0.84 | 1.22 | – | – | 1.18 | 1.08 |
| NCI-H2228 | 0.147 | – | 0.126 | 0.12 | 0.152 | 0.621 | – | 0.464 | 0.424 | 0.55 | – | – | – | – | – | 0.597 | 1.13 | 0.684 | 0.681 | 0.542 |
| NCI-H1703 | – | – | – | – | – | – | – | – | – | – | – | – | – | – | – | 0.329 | 0.292 | 0.262 | 0.146 | 0.177 |
| HCC-366 | – | – | – | – | – | 0.805 | – | 0.822 | 0.648 | 0.584 | 0.324 | 0.366 | 0.356 | 0.374 | 0.329 | 0.427 | 0.336 | 0.389 | 0.335 | 0.346 |
| NCI-H1355 | – | – | – | – | – | 0.766 | – | 0.659 | 0.696 | 0.678 | 0.359 | – | 0.35 | 0.345 | 0.35 | 0.812 | – | 0.822 | 0.762 | 0.699 |
| NCI-H1563 | 0.486 | 0.537 | 0.545 | 0.496 | 0.471 | 0.458 | 0.523 | 0.457 | 0.421 | 0.448 | – | – | – | – | – | – | – | – | – | – |
| HARA | 0.912 | – | 0.684 | 0.489 | 0.997 | 0.309 | – | 0.279 | 0.217 | 0.27 | 0.584 | 0.518 | 0.503 | 0.473 | 0.579 | 0.408 | 0.568 | – | 0.896 | 0.68 |
| H3255 | 0.922 | 0.415 | – | 0.865 | 0.777 | 0.443 | 0.346 | 0.351 | 0.361 | 0.258 | 0.605 | – | 0.544 | 0.633 | 0.504 | 0.576 | 0.572 | 0.565 | 0.566 | 0.612 |
| EMC-BAC-2 | 1.25 | 1.5 | 1.36 | 1.14 | – | 0.337 | 0.349 | 0.322 | 0.327 | 0.308 | 0.998 | 1.04 | – | 1.07 | 0.936 | 0.465 | 0.551 | 0.474 | 0.592 | 0.486 |
| COR-L 105 | 0.696 | – | 0.844 | 0.632 | 0.732 | 0.324 | 0.335 | 0.277 | 0.308 | 0.287 | 0.709 | 0.694 | 0.675 | 0.563 | 0.655 | 0.873 | 0.663 | 0.678 | 0.724 | 0.665 |
